{"source": "patent US20080109040A1", "about": "“METHOD OF TREATING ARRHYTHMIAS” (priority 2002, published 2008)", "key": {"epicardial preparations": {"tested_on": "epicardial preparations", "test": "Action potential studies in isolated canine ventricular epicardial tissues", "parameters": "Amplitude / Overshoot: unit not given beside the values", "conditions": "for Amplitude / Overshoot / RMP: epicardial, BCL = 500 msec", "protocol": "The composition of the Tyrode's solution was (in mM): […] Action potential recordings: Transmembrane potentials were recorded using standard glass microelectrodes filled with 2.7 M KCl (10 to 20 MΩ DC resistance) connected to a high input-impedance amplification system (World Precision Instruments, Sarasota, Fla., USA). […] Data recorded at BCLs of 500 and 2000 msec are presented."}, "[1]": {"biological_target": "T1, sodium-calcium exchange current (INa-Ca) (Canis lupus familiaris, UniProt P23685)", "T1 construct": "Single myocytes were obtained by enzymatic dissociation from a wedge-shaped section of the ventricular free wall; endogenous in cells; host or cells: isolated canine left ventricular myocytes", "test": "Sodium-calcium exchange current voltage clamp in isolated canine left ventricular myocytes", "assay_type": "cell-based", "conditions": "read-out: IC50 for inhibition of INa-Ca"}, "[2]": {"tested_on": "patients with LQT3-ΔKPQ mutation", "test": "8-hour intravenous ranolazine infusion in patients with hereditary long QT-syndrome LQT3-ΔKPQ", "assay_type": "in vivo, human", "description": "Subjects were drawn from the U.S. portion of the international LQTS Registry. Eligibility criteria for enrollment in the study were genotype confirmed LQT3-ΔKPQ mutation with QTc>0.47 sec, males or females age 18-55 years of age, and signed informed consent to participate in this study. Patients already taking beta-blocking medication were continued on the drug. Patients with an implanted pacemaker or defibrillator or those with prior cervical-thoracic sympathetic ganglionectomy were not excluded. Exclusion criteria included significant comorbility that would preclude the patient's safe participation in this study, pregnancy or women of child-bearing age not receiving appropriate contraceptive therapy with any other sodium-channel blocker, use of medications that inhibit CYP-3A4 hepatic enzymes, (including diltiazem or verapamil) and psycho-social problems that could compromise compliance with the protocol. Thirteen patients with the LQT3-ΔKPQ mutation from two unrelated families met the eligibility criteria without exclusion, and of eight contacted patients five agreed to participate in the study.\nEach patient had clinical and laboratory assessment including ultrasound evaluation on Day-2. Baseline studies off drug began at 8:00 am on Day-1: 12-lead ECG recorded at 8:00 am and every 0.5 hour for 8 hours and then at 2, 4, and 16 hours thereafter; a continuous 12-lead Holter was recorded for 24 hours. The 8-hour infusion of intravenous ranolazine was started at 8:00 am on Day 1 with time-matched ECG recordings at the same times as on Day-1. The second echocardiogram was obtained just before completion of the 8-hour of ranolazine infusion on Day 1. Blood samples for plasma ranolazine concentrations were drawn at hourly intervals during the ranolazine infusion, and at 2, 4, and 16 hours following completion of ranolazine infusion on Day 1.\nFive patients with LQT3-ΔKPQ mutation were prospectively investigated during 8-hour intravenous infusions of ranolazine with electrocardiographic and echocardiographic evaluation before and during ranolazine administration. Ranolazine was infused at a rate of 40 mg/hr for 3 hours, with doubling of the infusion rate during the subsequent 5 hours while obtaining hourly ranolazine blood levels.\nChanges in electrocardiographic parameters from before to during ranolazine infusion were evaluated by time-matched, paired t-test analyses, with repeated measures analysis of variance (ANOVA) where appropriate. The primary pre-specified electrocardiographic QTc analysis utilized a mixed-effects linear model of the change from time-matched baseline in QTc during ranolazine infusion with a fixed effect for time and a random effect for subject. A linear regression equation relating ranolazine blood level to QTc was developed using an analysis of covariance with effects for ranolazine level, subject and the interaction of subject with ranolazine level. The echocardiographic analyses involved evaluation of baseline parameters relative to normal standards for the laboratory as well as statistical comparisons of change in specific quantitative parameters between baseline and the peak ranolazine infusion. Two-sided p-values<0.05 were considered significant.\n12-lead ECGs and 24-hour 12-lead Holter ECGs were obtained to evaluate ventricular repolarization before, during, and after ranolazine infusion. The QT interval and the Fridericia corrected QT interval for heart rate (QTc) were measured according to standard criteria. QT was measured from the beginning of QRS complex to the end of T wave determined by an intersection of T wave and isoelectric line or to the nadir between T and U waves. U waves were not incorporated in the measurement of QT interval. Measurement of T-wave patterns included QT peak (ms), T-wave duration (ms), T peak-T end (ms), and T-wave amplitude (mv). The ECG parameters were measured on 3 consecutive beats in lead II, with lead aVF or V5 used if lead II was technically unsatisfactory. […]"}, "[3]": {"conditions": "epicardium, low [K+]o, BCL = 2000 msec"}, "[4]": {"conditions": "peak ranolazine infusion vs baseline"}}, "data": [{"smiles": "COc1ccccc1OCC(O)CN1CCN(CC(=O)Nc2c(C)cccc2C)CC1", "note": "(racemic) [ranolazine, N-(2,6-dimethylphenyl)-4-[2-hydroxy-3-(2-methoxyphenoxy)propyl]-1-piperazineacetamide]", "values": [{"measurement": "Effect on APD", "setting": "epicardial preparations; epicardial tissues, BCL 500 msec", "result": "concentration-dependent prolongation"}, {"measurement": "Amplitude", "setting": "epicardial preparations; ranolazine 1.0 μM", "result": "93 ± 5"}, {"measurement": "Overshoot", "setting": "epicardial preparations; ranolazine 1.0 μM", "result": "10 ± 4"}, {"measurement": "RMP", "setting": "epicardial preparations; ranolazine 1.0 μM", "result": "−84 ± 4"}, {"measurement": "Amplitude", "setting": "epicardial preparations; ranolazine 5.0 μM", "result": "101 ± 2"}, {"measurement": "Overshoot", "setting": "epicardial preparations; ranolazine 5.0 μM", "result": "12 ± 3"}, {"measurement": "RMP", "setting": "epicardial preparations; ranolazine 5.0 μM", "result": "−89 ± 1"}, {"measurement": "Amplitude", "setting": "epicardial preparations; ranolazine 10.0 μM", "result": "94 ± 5"}, {"measurement": "Overshoot", "setting": "epicardial preparations; ranolazine 10.0 μM", "result": "8 ± 4"}, {"measurement": "RMP", "setting": "epicardial preparations; ranolazine 10.0 μM", "result": "−88 ± 2"}, {"measurement": "Amplitude", "setting": "epicardial preparations; ranolazine 50.0 μM", "result": "86 ± 12"}, {"measurement": "Overshoot", "setting": "epicardial preparations; ranolazine 50.0 μM", "result": "0 ± 11"}, {"measurement": "RMP", "setting": "epicardial preparations; ranolazine 50.0 μM", "result": "−86 ± 1"}, {"measurement": "Amplitude", "setting": "epicardial preparations; ranolazine 100.0 μM (n=2)", "result": "93 ± 3"}, {"measurement": "Overshoot", "setting": "epicardial preparations; ranolazine 100.0 μM (n=2)", "result": "8 ± 4"}, {"measurement": "RMP", "setting": "epicardial preparations; ranolazine 100.0 μM (n=2)", "result": "−85 ± 3"}, {"measurement": "Effect on APD90", "setting": "epicardial preparations; epicardium, low [K+]o, BCL 500 msec", "result": "prominent concentration-dependent prolongation"}, {"measurement": "Effect on APD50", "setting": "epicardial preparations; [3]", "result": "little change"}, {"measurement": "Effect on APD90", "setting": "epicardial preparations; [3]", "result": "concentration-dependent prolongation"}, {"measurement": "Effect on APD in two of four epicardial preparations", "setting": "epicardial preparations; ranolazine 100.00 μM, BCL 500 msec", "result": "excessive APD prolongation"}, {"measurement": "IC50", "setting": "[1]", "result": 91, "unit": "µM"}, {"measurement": "QTc during ranolazine", "setting": "[2]; 8-hour iv infusion, baseline 558±55 ms", "result": "532 ± 46", "unit": "ms"}, {"measurement": "Mean reduction in QTc from baseline", "setting": "[2]; entire 8-hour iv ranolazine infusion, 5 patients", "result": "26 ± 3", "unit": "ms"}, {"measurement": "Average slope of QTc vs. ranolazine plasma concentration", "setting": "[2]; human, in vivo", "result": "−24", "unit": "ms per 1000 ng/ml"}, {"measurement": "Decrease in mitral E-wave deceleration time", "setting": "[2]; [4]", "result": 18, "unit": "%"}, {"measurement": "Increase in mitral E-wave velocity", "setting": "[2]; [4]", "result": 27, "unit": "%"}, {"measurement": "Shortening in left ventricular isovolumic relaxation time", "setting": "[2]; [4]", "result": 15, "unit": "%"}, {"measurement": "Adverse effects", "setting": "[2]; study patients", "result": "No adverse effects"}]}]}
